Experiments:
IKZF1 = biological target: T1, IKZF1 (Homo sapiens, UniProt Q13422+Q96SW2); assay: Western blot degradation of IKZF1 in hPBMCs (24 h); assay type: cell-based; conditions: compounds at 50 nM and 500 nM
T1 construct: The supernatant was aspirated as the extracted total cell protein; endogenous in cells; host or cells: human peripheral blood mononuclear cells (hPBMCs)
How it was run: (§1)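 Degradation in primary human PBMCs after 24 h compound exposure at 50 and 500 nM. Western blot band intensities, normalised to an internal control protein, expressed as % protein remaining relative to DMSO.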

WEE1 = biological target: T2, WEE1 (Homo sapiens, UniProt P30291+Q96SW2); assay: Western blot degradation of WEE1 in hPBMCs (24 h); assay type: cell-based; conditions: compounds at 50 nM and 500 nM
T2 construct: The supernatant was aspirated as the extracted total cell protein; endogenous in cells; host or cells: human peripheral blood mononuclear cells (hPBMCs)
How it was run: as §1

GSPT1 = biological target: T3, GSPT1 (Homo sapiens, UniProt P15170+Q96SW2); assay: Western blot degradation of GSPT1 in hPBMCs (24 h); assay type: cell-based; conditions: compounds at 50 nM and 500 nM
T3 construct: The supernatant was aspirated as the extracted total cell protein; endogenous in cells; host or cells: human peripheral blood mononuclear cells (hPBMCs)
How it was run: as §1

MM.1S cells = assay: Inhibition of proliferation of multiple myeloma cells MM.1S (cell viability assay, 96 h); assay type: cell-based, human; conditions: read-out: inhibitory activity (IC50) against tumor cells proliferation, MM.1S
Procedure: The tumor cells used herein were cultured in a cell culture medium listed in table 2 at 37 °C in an incubator with 5% CO2. Prior to experimentation, all cell lines used were correctly identified by STR profiling, and tested negative for Mycoplasma contamination using a Mycoplasma detection kit through routine screenings.
The IC50 values of the compounds of the present disclosure (including the compounds in Table 1, and Examples 1-498) were determined using the CellTiter-Meiluncell Luminescent Cell Viability Assay Kit from Dalian Meilun Biotech Co., Ltd. The detailed procedure is as follows: Tumor cells were seeded in 96-well cell culture plates at the densities specified in Table 3. On the following day, the test compounds of the present disclosure were subjected to serial dilution. […] Subsequently, 0.5 μL of the test compound dilution was transferred into the 96-well plate containing the cells, with each well containing 100 μL of cell culture medium. […] Into the 96-well plate, the diluted test compounds and corresponding detection reagents were added, resulting in final test compound concentrations of 500 nM and 10 nM, respectively. The experimental procedure is described below using the diluted 2 μM test compound as an example.
0.5 μL of the aforementioned diluted compound of the present disclosure (including the compounds in Table 1, and Examples 1-498) was added to the seeded cells in 100 μL of medium, yielding a final test compound concentration of 10 nM. After the cells were treated with the compounds of the present disclosure for a specified period, the cell viability assay reagent was added to the culture medium according to the kit's instructions to determine cell viability. […] All controls were treated using the same procedure as the compounds of the present disclosure. The growth inhibition curves for the compounds of the present disclosure were plotted using Prism GraphPad software, and the IC50 values were calculated therefrom.

IKZF2 = biological target: T4, IKZF2 (Homo sapiens, UniProt Q96SW2+Q9UKS7); assay: Western blot degradation of IKZF2 in hPBMCs (24 h); assay type: cell-based; conditions: compounds at 50 nM and 500 nM
T4 construct: The supernatant was aspirated as the extracted total cell protein; endogenous in cells; host or cells: human peripheral blood mononuclear cells (hPBMCs)
How it was run: as §1

CK1α = biological target: T5, CK1α (Homo sapiens, UniProt P48729+Q96SW2); assay: Western blot degradation of CK1α in hPBMCs (24 h); assay type: cell-based; conditions: compounds at 50 nM and 500 nM
T5 construct: The supernatant was aspirated as the extracted total cell protein; endogenous in cells; host or cells: human peripheral blood mononuclear cells (hPBMCs)
How it was run: as §1

IKZF3 = biological target: T6, IKZF3 (Homo sapiens, UniProt Q96SW2+Q9UKT9); assay: Western blot degradation of IKZF3 in hPBMCs (24 h); assay type: cell-based; conditions: compounds at 50 nM and 500 nM
T6 construct: The supernatant was aspirated as the extracted total cell protein; endogenous in cells; host or cells: human peripheral blood mononuclear cells (hPBMCs)
How it was run: as §1

T6 sequence (Q9UKT9 whole entry): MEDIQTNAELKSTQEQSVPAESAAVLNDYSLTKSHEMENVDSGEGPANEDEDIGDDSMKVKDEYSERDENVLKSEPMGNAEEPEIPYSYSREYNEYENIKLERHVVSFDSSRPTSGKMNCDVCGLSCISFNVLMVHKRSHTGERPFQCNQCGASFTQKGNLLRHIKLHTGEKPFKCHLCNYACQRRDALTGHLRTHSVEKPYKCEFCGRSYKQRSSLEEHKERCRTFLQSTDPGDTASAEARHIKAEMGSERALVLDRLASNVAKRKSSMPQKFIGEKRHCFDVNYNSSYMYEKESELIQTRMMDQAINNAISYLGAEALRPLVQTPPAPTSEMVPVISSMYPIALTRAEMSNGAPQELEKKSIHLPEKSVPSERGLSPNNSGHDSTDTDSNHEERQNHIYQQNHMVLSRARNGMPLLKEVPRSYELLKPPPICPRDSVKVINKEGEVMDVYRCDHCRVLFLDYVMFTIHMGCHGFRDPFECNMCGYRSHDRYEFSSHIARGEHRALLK
T6 sequence (Q96SW2 whole entry): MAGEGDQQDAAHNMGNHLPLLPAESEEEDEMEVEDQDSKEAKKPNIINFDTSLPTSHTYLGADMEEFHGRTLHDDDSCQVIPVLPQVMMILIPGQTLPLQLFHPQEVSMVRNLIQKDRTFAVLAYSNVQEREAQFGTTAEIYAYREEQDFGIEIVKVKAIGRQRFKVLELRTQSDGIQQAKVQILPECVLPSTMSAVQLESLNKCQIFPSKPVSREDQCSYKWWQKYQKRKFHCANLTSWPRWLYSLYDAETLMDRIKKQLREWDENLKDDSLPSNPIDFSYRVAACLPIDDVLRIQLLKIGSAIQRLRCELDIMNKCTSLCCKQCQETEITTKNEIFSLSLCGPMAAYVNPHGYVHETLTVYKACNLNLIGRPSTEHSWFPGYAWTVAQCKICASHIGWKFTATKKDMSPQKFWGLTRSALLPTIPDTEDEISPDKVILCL
T6 sequence (Q16531 whole entry partner): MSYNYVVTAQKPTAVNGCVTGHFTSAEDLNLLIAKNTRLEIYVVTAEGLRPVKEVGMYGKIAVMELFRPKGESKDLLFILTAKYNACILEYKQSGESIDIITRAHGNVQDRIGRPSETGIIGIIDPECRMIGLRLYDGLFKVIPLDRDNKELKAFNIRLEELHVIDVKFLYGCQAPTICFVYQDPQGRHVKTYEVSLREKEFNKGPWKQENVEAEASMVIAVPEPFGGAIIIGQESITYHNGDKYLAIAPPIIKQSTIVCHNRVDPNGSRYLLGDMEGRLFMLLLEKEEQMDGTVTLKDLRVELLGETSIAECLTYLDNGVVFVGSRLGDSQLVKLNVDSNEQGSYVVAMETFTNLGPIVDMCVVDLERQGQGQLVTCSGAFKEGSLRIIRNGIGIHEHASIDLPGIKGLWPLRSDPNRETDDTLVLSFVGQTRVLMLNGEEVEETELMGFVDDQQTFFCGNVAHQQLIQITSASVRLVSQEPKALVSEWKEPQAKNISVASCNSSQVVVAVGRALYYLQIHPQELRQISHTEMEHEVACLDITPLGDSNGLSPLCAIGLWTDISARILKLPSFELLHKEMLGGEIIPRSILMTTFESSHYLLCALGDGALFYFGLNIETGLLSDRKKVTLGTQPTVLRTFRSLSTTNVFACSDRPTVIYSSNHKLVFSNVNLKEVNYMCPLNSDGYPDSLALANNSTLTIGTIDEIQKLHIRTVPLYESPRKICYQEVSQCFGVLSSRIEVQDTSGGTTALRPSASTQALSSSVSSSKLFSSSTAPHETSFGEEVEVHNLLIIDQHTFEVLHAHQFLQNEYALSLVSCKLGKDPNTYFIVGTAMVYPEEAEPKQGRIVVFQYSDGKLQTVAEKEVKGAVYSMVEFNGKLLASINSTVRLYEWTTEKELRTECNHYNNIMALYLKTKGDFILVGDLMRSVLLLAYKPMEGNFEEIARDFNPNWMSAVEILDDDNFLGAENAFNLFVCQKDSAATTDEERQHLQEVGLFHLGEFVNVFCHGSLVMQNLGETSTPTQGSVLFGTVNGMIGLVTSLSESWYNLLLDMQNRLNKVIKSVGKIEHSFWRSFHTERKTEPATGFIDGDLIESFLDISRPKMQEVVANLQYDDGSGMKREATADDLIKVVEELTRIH
T1 sequence (Q13422 whole entry): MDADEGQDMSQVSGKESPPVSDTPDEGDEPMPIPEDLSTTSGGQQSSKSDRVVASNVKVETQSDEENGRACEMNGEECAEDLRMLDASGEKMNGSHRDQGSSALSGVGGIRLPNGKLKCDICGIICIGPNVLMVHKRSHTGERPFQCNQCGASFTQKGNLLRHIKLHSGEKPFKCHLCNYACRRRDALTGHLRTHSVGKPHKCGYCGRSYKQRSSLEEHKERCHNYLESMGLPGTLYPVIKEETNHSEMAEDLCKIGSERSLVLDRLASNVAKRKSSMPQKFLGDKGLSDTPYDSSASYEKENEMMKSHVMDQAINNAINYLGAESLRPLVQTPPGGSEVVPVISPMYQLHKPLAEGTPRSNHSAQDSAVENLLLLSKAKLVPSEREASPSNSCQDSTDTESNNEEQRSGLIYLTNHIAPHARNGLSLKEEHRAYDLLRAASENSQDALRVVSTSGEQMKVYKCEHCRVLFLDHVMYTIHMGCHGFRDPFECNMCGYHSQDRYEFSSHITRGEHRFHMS
T1 sequence (Q96SW2 whole entry): as the sequence (Q96SW2 whole entry) above
T1 sequence (Q16531 whole entry partner): as the sequence (Q16531 whole entry partner) above
T5 sequence (P48729 whole entry): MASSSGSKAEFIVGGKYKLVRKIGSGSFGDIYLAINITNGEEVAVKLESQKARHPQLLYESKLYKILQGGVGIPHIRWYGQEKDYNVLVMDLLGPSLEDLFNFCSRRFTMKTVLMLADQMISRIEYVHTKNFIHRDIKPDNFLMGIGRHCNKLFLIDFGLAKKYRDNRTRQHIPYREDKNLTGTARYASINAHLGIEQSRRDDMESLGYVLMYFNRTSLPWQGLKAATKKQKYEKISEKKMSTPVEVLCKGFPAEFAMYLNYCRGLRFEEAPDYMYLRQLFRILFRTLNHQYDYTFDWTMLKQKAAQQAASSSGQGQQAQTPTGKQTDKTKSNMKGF
T5 sequence (Q96SW2 whole entry): as the sequence (Q96SW2 whole entry) above
T5 sequence (Q16531 whole entry partner): as the sequence (Q16531 whole entry partner) above
T3 sequence (P15170 whole entry): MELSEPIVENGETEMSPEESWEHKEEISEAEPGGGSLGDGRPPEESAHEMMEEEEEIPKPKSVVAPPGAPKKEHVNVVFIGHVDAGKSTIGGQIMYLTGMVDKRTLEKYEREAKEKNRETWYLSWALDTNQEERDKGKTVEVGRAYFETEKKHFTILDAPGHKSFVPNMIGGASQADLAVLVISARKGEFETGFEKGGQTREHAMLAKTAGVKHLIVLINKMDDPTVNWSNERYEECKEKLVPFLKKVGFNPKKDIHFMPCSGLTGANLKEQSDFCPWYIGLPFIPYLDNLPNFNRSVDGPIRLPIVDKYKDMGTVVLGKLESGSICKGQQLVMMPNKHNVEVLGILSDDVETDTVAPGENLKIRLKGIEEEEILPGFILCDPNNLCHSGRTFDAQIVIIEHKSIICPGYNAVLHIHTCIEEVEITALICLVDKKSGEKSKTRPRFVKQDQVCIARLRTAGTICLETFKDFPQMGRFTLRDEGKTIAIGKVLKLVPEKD
T3 sequence (Q96SW2 whole entry): as the sequence (Q96SW2 whole entry) above
T3 sequence (Q16531 whole entry partner): as the sequence (Q16531 whole entry partner) above
T4 sequence (Q9UKS7 whole entry): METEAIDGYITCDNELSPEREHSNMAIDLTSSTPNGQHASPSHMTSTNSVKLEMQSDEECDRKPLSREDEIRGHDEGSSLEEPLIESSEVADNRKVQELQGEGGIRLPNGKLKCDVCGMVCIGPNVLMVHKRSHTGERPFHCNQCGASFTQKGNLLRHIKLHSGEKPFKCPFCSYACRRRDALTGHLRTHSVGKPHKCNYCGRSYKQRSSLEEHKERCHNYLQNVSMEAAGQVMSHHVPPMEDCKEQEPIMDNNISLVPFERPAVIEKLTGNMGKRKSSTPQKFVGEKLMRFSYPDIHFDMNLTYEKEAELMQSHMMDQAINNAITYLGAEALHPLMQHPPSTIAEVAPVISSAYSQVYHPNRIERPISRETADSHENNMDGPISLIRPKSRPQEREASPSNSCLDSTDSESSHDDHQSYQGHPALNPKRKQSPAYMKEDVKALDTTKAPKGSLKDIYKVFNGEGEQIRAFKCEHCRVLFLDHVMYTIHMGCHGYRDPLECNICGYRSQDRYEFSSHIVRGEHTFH
T4 sequence (Q96SW2 whole entry): as the sequence (Q96SW2 whole entry) above
T4 sequence (Q16531 whole entry partner): as the sequence (Q16531 whole entry partner) above

Row | Compound | IKZF1 substrate protein remaining % (IKZF1) | WEE1 substrate protein remaining % (WEE1) | GSPT1 substrate protein remaining % (GSPT1) | IC50 (MM.1S cells) [nM] | IKZF2 substrate protein remaining % (IKZF2) | CK1α substrate protein remaining % (CK1α) | IKZF3 substrate protein remaining % (IKZF3)
1 | O=C1CCN(N2Cc3cc(CN4CCN(C(c5ccc(F)cc5)c5ccc(F)cc5)CC4)ccc3C2=O)C(=O)N1 [GT-04894, 1-(5-((4-(bis(4-fluorophenyl)methyl)piperazin-1-yl)methyl)-1-oxoisoindolin-2-yl)dihydropyrimidine-2,4(1H,3H)-dione] | A (0% ≤ substrate protein remaining % ≤80%) | A (0% ≤ substrate protein remaining % ≤80%) | A (0% ≤ substrate protein remaining % ≤80%) | 500 to 1000 | A (0% ≤ substrate protein remaining % ≤80%) | B (80%< substrate protein remaining % ≤100%) | B (80%< substrate protein remaining % ≤100%)
2 | CC1(C)CCC(CN2CCN(Cc3ccc4c(c3)CN(N3CCC(=O)NC3=O)C4=O)CC2)=C(c2ccc(Cl)cc2)C1 [GT-04944, 1-(5-((4-((4′-chloro-5,5-dimethyl-3,4,5,6-tetrahydro-[1,1′-biphenyl]-2-yl)methyl)piperazin-1-yl)methyl)-1-oxoisoindolin-2-yl)dihydropyrimidine-2,4(1H,3H)-dione] | B (80%< substrate protein remaining % ≤100%) | B (80%< substrate protein remaining % ≤100%) | A (0% ≤ substrate protein remaining % ≤80%) | 500 to 1000 | B (80%< substrate protein remaining % ≤100%) | B (80%< substrate protein remaining % ≤100%) | B (80%< substrate protein remaining % ≤100%)
3 | O=C1CCN(N2Cc3cc(CN4CCN(c5cccc(Cl)n5)CC4)ccc3C2=O)C(=O)N1 [GT-05126, 1-(5-((4-(6-chloropyridin-2-yl)piperazin-1-yl)methyl)-1-oxoisoindolin-2-yl)dihydropyrimidine-2,4(1H,3H)-dione] | A (0% ≤ substrate protein remaining % ≤80%) | A (0% ≤ substrate protein remaining % ≤80%) | A (0% ≤ substrate protein remaining % ≤80%) | 300 to 500 | A (0% ≤ substrate protein remaining % ≤80%) | A (0% ≤ substrate protein remaining % ≤80%) | A (0% ≤ substrate protein remaining % ≤80%)
4 | O=C1CCN(N2Cc3cc(CN4CCN(c5ccc(Cl)cn5)CC4)ccc3C2=O)C(=O)N1 [GT-05127, 1-(5-((4-(5-chloropyridin-2-yl)piperazin-1-yl)methyl)-1-oxoisoindolin-2-yl)dihydropyrimidine-2,4(1H,3H)-dione] | A (0% ≤ substrate protein remaining % ≤80%) | A (0% ≤ substrate protein remaining % ≤80%) | A (0% ≤ substrate protein remaining % ≤80%) | 500 to 1000 | B (80%< substrate protein remaining % ≤100%) | A (0% ≤ substrate protein remaining % ≤80%) | A (0% ≤ substrate protein remaining % ≤80%)
5 | O=C1CCN(N2Cc3cc(CN4C[C@@H]5C[C@H]4CN5c4cccc(Cl)c4Cl)ccc3C2=O)C(=O)N1 [GT-05163, 1-(5-(((1S,4S)-5-(2,3-dichlorophenyl)-2,5-diazabicyclo[2.2.1]heptan-2-yl)methyl)-1-oxoisoindolin-2-yl)dihydropyrimidine-2,4(1H,3H)-dione] | A (0% ≤ substrate protein remaining % ≤80%) | B (80%< substrate protein remaining % ≤100%) | A (0% ≤ substrate protein remaining % ≤80%) | 500 to 1000 | A (0% ≤ substrate protein remaining % ≤80%) | B (80%< substrate protein remaining % ≤100%) | A (0% ≤ substrate protein remaining % ≤80%)
6 | O=C1CCN(N2Cc3cc(CN4CCC(c5c[nH]c6cc(F)ccc56)CC4)ccc3C2=O)C(=O)N1 [GT-05164, 1-(5-((4-(6-fluoro-1H-indol-3-yl)piperidin-1-yl)methyl)-1-oxoisoindolin-2-yl)dihydropyrimidine-2,4(1H,3H)-dione] | A (0% ≤ substrate protein remaining % ≤80%) | B (80%< substrate protein remaining % ≤100%) | A (0% ≤ substrate protein remaining % ≤80%) | 100 to 300 | A (0% ≤ substrate protein remaining % ≤80%) | B (80%< substrate protein remaining % ≤100%) | B (80%< substrate protein remaining % ≤100%)
7 | O=C1CCN(N2Cc3cc(CN4CCC(N5CCc6cc(F)ccc65)CC4)ccc3C2=O)C(=O)N1 [GT-05165, 1-(5-((4-(5-fluoroindolin-1-yl)piperidin-1-yl)methyl)-1-oxoisoindolin-2-yl)dihydropyrimidine-2,4(1H,3H)-dione] | B (80%< substrate protein remaining % ≤100%) | B (80%< substrate protein remaining % ≤100%) | A (0% ≤ substrate protein remaining % ≤80%) | 500 to 1000 | A (0% ≤ substrate protein remaining % ≤80%) | B (80%< substrate protein remaining % ≤100%) | B (80%< substrate protein remaining % ≤100%)
8 | O=C1CCN(N2Cc3cc(CN4CC=C(c5ccnc6cc(F)ccc56)CC4)ccc3C2=O)C(=O)N1 [GT-05166, 1-(5-((4-(7-fluoroquinolin-4-yl)-3,6-dihydropyridin-1(2H)-yl)methyl)-1-oxoisoindolin-2-yl)dihydropyrimidine-2,4(1H,3H)-dione] | A (0% ≤ substrate protein remaining % ≤80%) | A (0% ≤ substrate protein remaining % ≤80%) | A (0% ≤ substrate protein remaining % ≤80%) | 100 to 300 | A (0% ≤ substrate protein remaining % ≤80%) | B (80%< substrate protein remaining % ≤100%) | A (0% ≤ substrate protein remaining % ≤80%)
9 | Cn1cc(C2=CCN(Cc3ccc4c(c3)CN(N3CCC(=O)NC3=O)C4=O)CC2)c2ccc(F)cc21 [GT-05167, 1-(5-((4-(6-fluoro-1-methyl-1H-indol-3-yl)-3,6-dihydropyridin-1 (2H)-yl)methyl)-1-oxoisoindolin-2-yl)dihydropyrimidine-2,4(1H,3H)-dione] | A (0% ≤ substrate protein remaining % ≤80%) | A (0% ≤ substrate protein remaining % ≤80%) | A (0% ≤ substrate protein remaining % ≤80%) | 10 to 50 | A (0% ≤ substrate protein remaining % ≤80%) | B (80%< substrate protein remaining % ≤100%) | A (0% ≤ substrate protein remaining % ≤80%)
10 | O=C1CCN(N2Cc3cc(CN4CC(=C5CCOc6cc(F)ccc65)C4)ccc3C2=O)C(=O)N1 [GT-05168, 1-(5-((3-(7-fluorochroman-4-ylidene)azetidin-1-yl)methyl)-1-oxoisoindolin-2-yl)dihydropyrimidine-2,4(1H,3H)-dione] | B (80%< substrate protein remaining % ≤100%) | B (80%< substrate protein remaining % ≤100%) | A (0% ≤ substrate protein remaining % ≤80%) | 100 to 300 | B (80%< substrate protein remaining % ≤100%) | B (80%< substrate protein remaining % ≤100%) | A (0% ≤ substrate protein remaining % ≤80%)

From patent US20260356819A1, “OXOISOINDOLINYL-SUBSTITUTED […] DERIVATIVE AND USE THEREOF” (GLUETACS THERAPEUTICS (SHANGHAI) CO., LTD., priority 2023, published 2026)
